Common to all, as to format: in vivo
In assay [1] the test system is Black Bean Aphid [Aphis fabae (Scop.)]. Briefly: Black bean aphid spray test on nasturtium (BBA), 48 hours. As to conditions: percent of test compound in sprayed solution. A digest of the protocol:
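LC50, given as percent test compound in the sprayed liquid, was calculated from dosage-mortality curves using concentrations from 0.05% downward. Sprays in 50:50 acetone-water went to runoff on ~5 cm nasturtiums carrying 25-50 aphids of mixed ages, one day after infestation. Deaths were counted 48 h later under greenhouse conditions.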

The test system of assay [2] is Tobacco Budworm [Heliothis virescens (Fabricius)] eggs. Briefly: Tobacco budworm eggs (TBW-E). To be noted: percent in solution; 2-day old eggs. A digest of the protocol: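 Paper towel patches bearing 2-day old eggs were dipped in acetone solutions of compound, then set in petri dishes over larval rearing medium at 78° F. Mortality was scored once all control eggs had hatched and larvae were feeding. LC50, from dosage-mortality curves, is given as percent compound in solution.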

For assay [3], the system named is Maize weevil [Sitophilus zeamais (Motschulsky)]. Briefly: Maize weevil on dipped corn seeds (MW), 48 hours. As to conditions: percent in solution, adult weevils. A digest of the protocol: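 LC50, given as percent of compound in dipping solution, comes from dosage-mortality curves over concentrations descending from 0.01%. Four corn seeds soaked 2-3 s in 50:50 acetone:water solution were dried and held with 10 adult weevils, about 25° C, mortality read after 48 h.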

For assay [4], the system named is Housefly [Musca domestica]. In words: Housefly contact mortality in dishes (HF), 48 hours. To be noted: μg of test compound per 25 female flies. In outline:
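Dose range started at 100 μg per 25 female flies and went downward. Insects (1-2 days old) contacted a dried acetone/peanut-oil deposit in dishes; LC50 values come from dosage-mortality curves at 48 h.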

The subject of assay [5] is Cabbage Looper [Trichoplusia ni (Hubner)]. Briefly: Cabbage looper leaf dip (CL), 3-5 days. To be noted: percent in solution, second-instar larvae. A digest of the protocol: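 Compounds in 50-50 acetone-water were applied by dipping squash cotyledons (about 1×1.5 in) for 2-3 s; dried leaves went into petri dishes on moist filter paper with 5 second-instar larvae under high humidity. Mortality was scored after 3-5 days; LC50 from dosage-mortality curves, as percent compound in solution.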

Assay [6] has as its system Aster Leafhopper [Macrosteles fascifrens (Stal)]. Briefly: Aster leafhopper on dipped oat seedlings (LH), 48 hours. To be noted: percent in solution, adults/nymphs. A digest of the protocol: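 Three ~10 cm oat seedlings per cup were dipped 2-3 seconds in 50-50 acetone-water compound solutions, dried, and caged with ten adult/nymph leafhoppers. Mortality was counted after 48 hours at concentrations from 0.05% downward. LC50, as percent compound in solution, came from dosage-mortality curves.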

Turning to `C=CCOc1cccc(COC(=Nc2ccc(F)c(Cl)c2)C(C)C)c1` [Compound 479], in assay [1], the “LC50 BBA” value is over 0.05%. The “LC50 TBW E (eggs)” value in assay [2] is over 0.1%. In addition, in assay [3], the “LC50 MW” value is given as over 0.01%. Also, in assay [4], the “LC50 HF” value worked out at 66 µg. The “LC50 CL” value in assay [5] worked out at 0.013%. The “LC50 LH” value in assay [6] is over 0.05%.
Consider `CC(C)C(=Nc1ccc(F)c(Cl)c1)OCc1cccc(OCc2ccc(F)cc2)c1` [Compound 490], for which, in assay [1], the “LC50 BBA” value is recorded as over 0.05%. Further, in assay [2], the “LC50 TBW E (eggs)” value is over 0.1%. In assay [3], the “LC50 MW” value was over 0.01%. Besides, in assay [4], the “LC50 HF” value was over 100 µg. Further, the “LC50 CL” value in assay [5] amounted to 0.0045%. Moreover, in assay [6], the “LC50 LH” value was over 0.05%.
For the compound `CC(C)C(=Nc1ccc(F)c(Cl)c1)OCc1cccc(Oc2ccc(Br)cc2)n1` [Compound 492], in assay [1], the “LC50 BBA” value is recorded as over 0.05%. In addition, in assay [2], the “LC50 TBW E (eggs)” value worked out at 0.015%. The “LC50 MW” value in assay [3] is over 0.01%. Further, the “LC50 HF” value in assay [4] worked out at 15 µg. The “LC50 CL” value in assay [5] is 0.00028%. Besides, the “LC50 LH” value in assay [6] is given as over 0.05%.
As to `CC(C)C(=Nc1ccc(F)c(Cl)c1)OCc1cccc(Nc2ccc(F)cc2)c1` [Compound 512], in assay [1], the “LC50 BBA” value is on record as over 0.05%. In addition, in assay [2], the “LC50 TBW E (eggs)” value is on record as over 0.1%. In addition, the “LC50 MW” value in assay [3] was over 0.01%. The “LC50 HF” value in assay [4] was determined as 35 µg. The “LC50 CL” value in assay [5] turned out to be 0.003%. For the same compound, the “LC50 LH” value in assay [6] is given as over 0.05%.
Consider `CC(C)C(=Nc1cccc(C(F)(F)F)c1)OCc1cccc(Nc2ccc(F)cc2)c1` [Compound 513], for which the “LC50 BBA” value in assay [1] was over 0.05%. In addition, the “LC50 TBW E (eggs)” value in assay [2] is over 0.1%. Further, the “LC50 MW” value in assay [3] is over 0.01%. For the same compound, the “LC50 HF” value in assay [4] came to 81 µg. Besides, the “LC50 CL” value in assay [5] turned out to be 0.007%. For the same compound, the “LC50 LH” value in assay [6] is recorded as over 0.05%.
Regarding `CC(C)C(=Nc1ccc(Cl)c(Cl)c1)OCc1cccc(Nc2ccc(F)cc2)c1` [Compound 514], the “LC50 BBA” value in assay [1] is reported as 0.003%. In addition, the “LC50 TBW E (eggs)” value in assay [2] is recorded as over 0.1%. The “LC50 MW” value in assay [3] was over 0.01%. For the same compound, the “LC50 HF” value in assay [4] is over 100 µg. Besides, the “LC50 CL” value in assay [5] was determined as 0.008%. The “LC50 LH” value in assay [6] is reported as over 0.05%.
As to `CC(C)C(=Nc1ccc2c(c1)OCO2)OCc1cc(Oc2ccc(F)cc2)ccn1` [Compound 515], in assay [1], the “LC50 BBA” value is given as over 0.05%. The “LC50 TBW E (eggs)” value in assay [2] is over 0.1%. For the same compound, in assay [3], the “LC50 MW” value was over 0.01%. Also, in assay [4], the “LC50 HF” value was determined as 28 µg. Besides, the “LC50 CL” value in assay [5] was determined as 0.0015%. The “LC50 LH” value in assay [6] is listed as over 0.05%.
For the compound `CC(C)C(=Nc1ccc(F)c(Cl)c1)OCc1cc(Oc2ccc(Cl)cc2)ccn1` [Compound 516], the “LC50 BBA” value in assay [1] was over 0.05%. Moreover, in assay [2], the “LC50 TBW E (eggs)” value is recorded as over 0.1%. For the same compound, the “LC50 MW” value in assay [3] is on record as over 0.01%. Further, the “LC50 HF” value in assay [4] was over 100 µg. Besides, the “LC50 CL” value in assay [5] amounted to 0.008%. Moreover, the “LC50 LH” value in assay [6] is over 0.05%.
Turning to `CC(C)C(=Nc1cccc(C(F)(F)F)c1)OCc1ccnc(Oc2ccc(Cl)cc2)c1` [Compound 517], the “LC50 BBA” value in assay [1] is reported as over 0.05%. In assay [2], the “LC50 TBW E (eggs)” value is recorded as 0.04%. Besides, the “LC50 MW” value in assay [3] was over 0.01%. For the same compound, in assay [4], the “LC50 HF” value stood at 80 µg. The “LC50 CL” value in assay [5] stood at 0.0008%. For the same compound, the “LC50 LH” value in assay [6] is over 0.05%.
Consider `CC(C)C(=Nc1cccc(C(F)(F)F)c1)OCc1cccc(Oc2ccc(Cl)cn2)c1` [Compound 518], for which the “LC50 BBA” value in assay [1] is over 0.05%. For the same compound, the “LC50 TBW E (eggs)” value in assay [2] is listed as over 0.1%. The “LC50 MW” value in assay [3] was over 0.01%. In assay [4], the “LC50 HF” value was over 100 µg. The “LC50 CL” value in assay [5] amounted to 0.00075%. Besides, the “LC50 LH” value in assay [6] is recorded as over 0.05%.
On to `C#CC(OC(=Nc1cccc(C(F)(F)F)c1)C(C)C)c1cccc(Oc2ccccc2)c1` (stereo not drawn) [Compound 519], for which, in assay [1], the “LC50 BBA” value was over 0.05%. Besides, in assay [2], the “LC50 TBW E (eggs)” value is over 0.1%. The “LC50 MW” value in assay [3] is on record as over 0.01%. The “LC50 HF” value in assay [4] is 60 µg. Also, the “LC50 CL” value in assay [5] is given as 0.0037%. Besides, the “LC50 LH” value in assay [6] is recorded as over 0.05%.
Turning to `CCC(=Nc1ccc(F)c(F)c1)OCc1coc(Cc2ccccc2)c1` [Compound 524], the “LC50 BBA” value in assay [1] is over 0.05%. Also, the “LC50 TBW E (eggs)” value in assay [2] is over 0.1%. The “LC50 MW” value in assay [3] is recorded as over 0.01%. For the same compound, the “LC50 HF” value in assay [4] is 5.2 µg. Also, the “LC50 CL” value in assay [5] is recorded as over 0.1%. In addition, the “LC50 LH” value in assay [6] is recorded as over 0.05%.
In the case of `CC(C)(C)C(=Nc1ccc(F)c(F)c1)OCc1coc(Cc2ccccc2)c1` [Compound 525], in assay [1], the “LC50 BBA” value is over 0.05%. For the same compound, the “LC50 TBW E (eggs)” value in assay [2] was over 0.1%. In addition, the “LC50 MW” value in assay [3] is reported as over 0.01%. Further, the “LC50 HF” value in assay [4] is over 100 µg. Besides, the “LC50 CL” value in assay [5] is on record as under 0.1%. Also, the “LC50 LH” value in assay [6] was over 0.05%.
In the case of `CC(=Nc1ccc(F)c(F)c1)OCc1coc(Cc2ccccc2)c1` [Compound 526], the “LC50 BBA” value in assay [1] is recorded as over 0.05%. The “LC50 TBW E (eggs)” value in assay [2] was over 0.1%. For the same compound, in assay [3], the “LC50 MW” value is given as over 0.01%. Also, in assay [4], the “LC50 HF” value was found to be 8.3 µg. Besides, the “LC50 CL” value in assay [5] was over 0.1%. The “LC50 LH” value in assay [6] is given as over 0.05%.
Consider `CC(C)C(=Nc1ccc(F)c(Cl)c1)OCc1cccc(Oc2ccc(Cl)cn2)c1` [Compound 527], for which the “LC50 BBA” value in assay [1] worked out at 0.03%. Also, the “LC50 TBW E (eggs)” value in assay [2] stood at 0.035%. Moreover, the “LC50 MW” value in assay [3] was over 0.01%. Moreover, in assay [4], the “LC50 HF” value is 47 µg. Moreover, the “LC50 CL” value in assay [5] worked out at 0.00065%. Also, the “LC50 LH” value in assay [6] was over 0.05%.
As for `CC(C)C(=Nc1ccc2c(c1)OCO2)OCc1cccc(Oc2ccc(Cl)cn2)c1` [Compound 532], the “LC50 BBA” value in assay [1] is recorded as over 0.05%. The “LC50 TBW E (eggs)” value in assay [2] was over 0.1%. The “LC50 MW” value in assay [3] was over 0.01%. Also, the “LC50 HF” value in assay [4] is over 100 µg. The “LC50 CL” value in assay [5] was under 0.1%. Further, in assay [6], the “LC50 LH” value is over 0.05%.
In the case of `C#CC(OC(=Nc1ccc(F)c(Cl)c1)C(C)C)c1cccc(Oc2ccccc2)c1` (stereo not drawn) [Compound 533, N-(3-chloro-4-fluorophenyl)-O-[1-(3-phenoxyphenyl)-2-propyn-1-yl]isobutyrimidate], in assay [1], the “LC50 BBA” value is given as over 0.05%. Besides, in assay [2], the “LC50 TBW E (eggs)” value is given as over 0.1%. For the same compound, in assay [3], the “LC50 MW” value is on record as over 0.01%. Further, the “LC50 HF” value in assay [4] stood at 60 µg. Besides, in assay [5], the “LC50 CL” value is listed as over 0.1%. The “LC50 LH” value in assay [6] is listed as over 0.05%.
As to `CC(C)C(=Nc1ccc(F)c(Cl)c1)OCC#CCOc1ccccc1` [Compound 534], in assay [1], the “LC50 BBA” value was over 0.05%. For the same compound, in assay [2], the “LC50 TBW E (eggs)” value is recorded as over 0.1%. Moreover, in assay [3], the “LC50 MW” value is reported as over 0.01%. Moreover, the “LC50 HF” value in assay [4] was over 100 µg. The “LC50 CL” value in assay [5] is on record as under 0.1%. Also, in assay [6], the “LC50 LH” value is over 0.05%.
For `CC(C)C(=Nc1ccc(C(F)(F)F)cc1)OCc1cccc(Cc2ccccc2)c1` [Compound 535], the “LC50 BBA” value in assay [1] is recorded as over 0.05%. Besides, the “LC50 TBW E (eggs)” value in assay [2] is given as over 0.1%. Besides, in assay [3], the “LC50 MW” value is on record as over 0.01%. Moreover, the “LC50 HF” value in assay [4] worked out at 41 µg. Also, the “LC50 CL” value in assay [5] is on record as over 0.1%. Further, the “LC50 LH” value in assay [6] is over 0.05%.

The record behind these values is patent US5045566A, “Novel imidate insecticides” (ICI Americas Inc., priority 1989, dated 1991).
